Columns and labels:
Laodelphax striatellus = test: Insecticidal Test on Laodelphax striatellus; format: in vivo; conditions: 192 h, rice plant seedlings dipped for 30 seconds, 3rd-instar larvae, 8 days after the inoculation, read-out: insecticidal efficacy (corrected mortality rate)
Description: Insecticidal Test on Laodelphax striatellus
The condensed heterocyclic compounds represented by the general formula (1) of the present invention or salts thereof were separately dispersed in water and diluted to 500 ppm. Rice plant seedlings (variety: Nihonbare) were dipped in the agrochemical dispersions for 30 seconds. After air-dried, each seedling was put into a separate glass test tube and inoculated with ten 3rd-instar larvae of Laodelphax striatellus, and then the glass test tubes were capped with cotton plugs. At 8 days after the inoculation, the numbers of surviving larvae and dead larvae were counted, the corrected mortality rate was calculated according to the formula shown below, and the insecticidal efficacy was evaluated according to the criteria shown below. Corrected mortality rate(%)=100×(Survival rate in a non-treatment plot−Survival rate in a treatment plot)/Survival rate in a non-treatment plot [Math. 2] Corrected Mortality Rate A: the corrected mortality rate is 100%. B: the corrected mortality rate is 90 to 99%. C: the corrected mortality rate is 80 to 89%. D: the corrected mortality rate is 50 to 79%.

Plutella xylostella = test: Insecticidal Test on Plutella xylostella; format: in vivo; conditions: 144 h, Chinese cabbage seedlings with laid eggs dipped for about 30 seconds, 25° C., 6 days after the dip treatment, read-out: insecticidal efficacy (corrected mortality rate)
Description: Insecticidal Test on Plutella xylostella
Adults of Plutella xylostella were released onto Chinese cabbage seedlings and allowed to lay eggs thereon. At 2 days after the release of the adults, the Chinese cabbage seedlings with laid eggs were dipped for about 30 seconds in agrochemical dispersions diluted to 500 ppm, each of which contained a different condensed heterocyclic compound represented by the general formula (1) of the present invention as an active ingredient. After air-dried, the seedlings were kept in a thermostatic chamber at 25° C. At 6 days after the dip treatment, the number of hatched larvae per plot was counted, the mortality rate was calculated according to the formula shown below, and the insecticidal efficacy was evaluated according to the criteria of Test Example 2. This test was conducted in triplicate using 10 adults of Plutella xylostella per plot. Corrected mortality rate(%)=100×(Number of hatched larvae in a non-treatment plot−Number of hatched larvae in a treatment plot)/Number of hatched larvae in a non-treatment plot [Math. 3]

| SMILES | mortality at 500 ppm (Laodelphax striatellus) | mortality at 500 ppm (Plutella xylostella) |
| --- | --- | --- |
| CCS(=O)(=O)c1cc(-c2cccc(C(F)(F)F)c2)cnc1-c1nc2cc(C(F)(F)F)cn(C)c-2c1Cl [Compound 1-13, 2-(5-(3-trifluoromethylphenyl)-3-ethylsulfonyl-pyridin-2-yl)-3-chloro-4-methyl-6-trifluoromethyl-4H-pyrrolo[3,2-b]pyridine] | 100% | 100% |
| CCn1cc(C(F)(F)F)cc2nc(-c3ncc(-c4cccc(C(F)(F)F)c4)cc3S(=O)(=O)CC)c(F)c1-2 [Compound 1-16, 2-(5-(3-trifluoromethylphenyl)-3-ethylsulfonyl-pyridin-2-yl)-3-fluoro-4-ethyl-6-trifluoromethyl-4H-pyrrolo[3,2-b]pyridine] | 100% | 100% |
| CCn1cc(C(F)(F)F)cc2nc(-c3nc4cc(Br)ccc4cc3S(=O)(=O)CC)c(Cl)c1-2 [Compound 2-52, 2-(7-bromo-3-ethylsulfonyl-quinolin-2-yl)-3-chloro-4-ethyl-6-trifluoromethyl-4H-pyrrolo[3,2-b]pyridine] | 100% | 100% |
| CCn1cc(C(F)(F)F)cc2nc(-c3nc4cc(Br)ccc4cc3S(=O)(=O)CC)c(F)c1-2 [Compound 2-76, 2-(7-bromo-3-ethylsulfonyl-quinolin-2-yl)-3-fluoro-4-ethyl-6-trifluoromethyl-4H-pyrrolo[3,2-b]pyridine] | 100% | 100% |
| CCS(=O)(=O)c1c(-c2nc3cc(C(F)(F)F)cn(C)c-3c2F)nc2cc(C(F)(F)F)ccn12 [Compound 3-14, 2-(3-ethylsulfonyl-7-(trifluoromethyl)imidazo[1,2-a]pyridin-2-yl)-3-fluoro-4-methyl-6-(trifluoromethyl)-4H-pyrrolo[3,2-b]pyridine] | 100% | 100% |

— patent publication US11083198B2, “4H-pyrrolopyridine compound or salt thereof, agricultural and horticultural insecticide comprising the compound or the salt, and method for using the insecticide” (Nihon Nohyaku Co., Ltd., priority 2016, dated 2021)
